Tested on: indicator strains
Experiment: Deferred antagonism assay, producer S. salivarius K12: total strains inhibited
Format: cell-based
Settings: K12
Procedure: 1-2 producer strain colonies were transferred from a stock plate into 900 μL of suspension solution using a fresh cotton swab. Following this, suspensions were vortexed, and a sample was inoculated onto solid culture media using a fresh cotton swab. The inoculation was a streak that runs diametrically across the agar plate in a 1.5 cm wide strip. The plate was then incubated. Following incubation all visible colonies were removed by swabbing them from the agar surface. The plates were then treated with chloroform by dispensing 2 ml of chloroform onto 4 cm×4 cm piece of cloth and sealing the inverted agar plate on top for 30 minutes. The plates were then air dried for 30 minutes following chloroforming. 1-2 indicator strain colonies were then transferred from a stock plate into complementary suspension solution. The suspensions were then vortexed, and a sample was inoculated onto the same agar surface. These samples were streaked in a perpendicular direction to the initial producer streak.
Each indicator streak was prepared with fresh a suspension containing cells from a corresponding stock plate containing the indicator strain of interest. Indicator strains suspension samples were transferred using a fresh cotton swab. Results were measured by qualitatively reviewing the subsequent (if any) sizes of the zones of inhibition (ZOI) of indicator strain colony growth. A positive result is when there is a distinctive reduction or complete inhibition of indicator colony growth on the culture medium.
CABCa agar plates containing various concentrations of saccharide were prepared according to the methods described in Method 1. Producer strains were transferred from stock agar plates into 900 μL THB using a fresh cotton swab. A plastic spread plater was cut to approximately 1.2 cm width and then dipped into ethanol and left to air dry to ensure sterility. A 100 μL sample of the producer strain suspension was then dispensed onto the agar surface in a straight line running diametrically across the agar surface in (approximately) 20 μL spots. The spots were spaced approximately 1.5 cm apart from each other. The plastic spreader was then used to evenly distribute the spots across the agar surface in a 1.5 cm wide strip. This step was taken to ensure an even producer streak was inoculated onto the agar surface and provided an approximate measure of the initial inoculum concentration. Separate plastic spreaders were used for samples containing different producer strains. The samples were left to soak into the agar surface until there was no visible liquid remaining on the agar surface (approximately 20 minutes). Following producer streak preparations, the deferred antagonism assay protocol was followed as per Method 2. Results were recorded by measuring the size of the zone of inhibition (ZOI) in mm.
A dose response assay was carried out according to method 3 above, except a 1.2 cm streak was used. For the individual saccharide testing the pH of the producer streak was adjusted after the growth of producer to change the acidic conditions.
A deferred antagonism assay was conducted using K12 or M18 raw ingredient suspended in Todd Hewitt broth (THB). This was spread as a 1.2 cm streak containing approximately 1-2×10^6 cfu down the middle of a CABCa control or CABCa galactose supplemented test plate. After 18 hrs growth at 37° C. with 5% CO2, bacterial growth was removed, and the pH of the agar in the initial streak was measured and adjusted to a pH of 6.5-7.5 using 0.5M sodium carbonate pH11 before sterilizing the agar surface using chloroform vapor. Bacterial test strains were suspended in i-THB before being swabbed across the plates perpendicular to the initial streak. Plates were incubated for a further 18 hrs incubation at 37° C. with 5% CO2 before measuring (mm) any zones of inhibition for each test strain, […]

O=C(CO)[C@@H](O)[C@H](O)[C@H](O)CO [Fructose, D-(−) Fructose, reference compound]
Total strains inhibited (saccharide 3.3% w/v): 0/3 | Total strains inhibited (saccharide range 0.83%-3.3% w/v): 0/3
